Consider two molecules from patent US20120071513A1, “Compositions and Their Use as Anti-Tumor Agents” (COMPASS PHARMACEUTICALS LLC, priority 2004, published 2012).

Assay [1] deals with A375 human melanoma xenografts. Briefly: in vivo anti-tumor activity, A375 xenografts. The arrangement: species or system mice. The following applies: 30 mg/kg. As for the experimental part:
The in vivo anti-tumor activity of CP5017808 was evaluated against A375 human melanoma xenografts and ovarian carcinoma.
CP5017808 was dissolved with heat and sonication in a 1:1 mixture of absolute ethanol and CREMAPHOR™ equivalent to 20% of the final desired volume, and then brought to a final volume with 40% hydroxypropyl-β-cyclodextin in water. CP5017808 produced a fine suspension with a pH of 6.2.
Female NCr nu/nu mice (Charles River Laboratory) were used for the study. They were 5-6 weeks old on Day 1 of the experiment. The animals were fed Rodent Diet 5010 (LabDiet™) and water ad libitum. The mice were housed in Thoren™ microisolator caging with Bed-O'Cobs™ bedding. […]
Body weights and tumor measurements were recorded three times weekly. […] T/C values were calculated by dividing the treated median tumor mass by the median control tumor mass and multiplying by 100. […] Tumor Growth Delay (T-C) was also used to quantify efficacy. Tumor growth delay for this experiment was expressed as a T-C value, where T and C are the median times in days required for the treatment and control group tumors, respectively, to grow to a selected evaluation size, 750 mg.
The time for individual tumors to reach evaluation size, time to fold growth, and tumor volume doubling times were analyzed by a single factor ANOVA. […]

The test system of assay [2] is A2780 human ovarian adenocarcinoma xenografts. Briefly: in vivo anti-tumor activity, A2780 xenografts. The arrangement: species or system mice. The note with it: 15 mg/kg, Day 19, positive control. On the procedure:
Body weights and tumor measurements were recorded three times weekly. Tumor burden (mg) was estimated from caliper measurements by the formula for the volume of a prolate ellipsoid assuming unit density as: Tumor burden (mg)=(L×W2)/2, where L and W are the respective orthogonal tumor length and width measurements (mm). The primary endpoints used to evaluate efficacy were study day 26 T/C values, complete and partial tumor responses, tumor growth delay, and the number of tumor-free survivors at the end of the study. T/C values were calculated by dividing the treated median tumor mass by the median control tumor mass and multiplying by 100. The USA National Cancer Institute (NCI) considers a compound which produces a % T/C value of 42 of less is active. Complete response (CR) is defined as a decrease in tumor mass to an undetectable size (<50 mg), and a partial response (PR) is defined as a ≧50% decrease in tumor mass from that at first treatment. […] Tumor Growth Delay (T-C) was also used to quantify efficacy. Tumor growth delay for this experiment was expressed as a T-C value, where T and C are the median times in days required for the treatment and control group tumors, respectively, to grow to a selected evaluation size, 750 mg. […]
Test animals were implanted subcutaneously on day 0 with 30 to 60 mg A2780 tumor fragments. […] Tumor mass on day 19 was analyzed by a single factor ANOVA. […]

The molecule `CC(=O)O[C@@]12CO[C@@H]1C[C@H](O)[C@@]1(C)C(=O)[C@H](O)C3=C(C)[C@@H](OC(=O)[C@H](O)[C@@H](NC(=O)OC(C)(C)C)c4ccccc4)C[C@@](O)([C@@H](OC(=O)c4ccccc4)[C@H]21)C3(C)C` [docetaxel] came in with a tumor growth delay in assay [1] (evaluation size 750 mg) of 10 days. In assay [1] (study day 26, positive control), the “% T/C value” was found to be 32%.
On to `CC(=O)O[C@H]1C(=O)[C@@]2(C)[C@H]([C@H](OC(=O)c3ccccc3)[C@]3(O)C[C@H](OC(=O)[C@H](O)[C@@H](NC(=O)c4ccccc4)c4ccccc4)C(C)=C1C3(C)C)[C@]1(OC(C)=O)CO[C@@H]1C[C@@H]2O` [Taxol®], for which the “% T/C value” in assay [2] is recorded as 15%.
